Experimental data reported in ChEMBL document CHEMBL4177603 (Bioorg Med Chem Lett, 2017).

Experiments:
[1] = molecular target: High affinity choline transporter 1 (Homo sapiens) (UniProt Q9GZV3); assay: Displacement of [3H]hemicholinium-3 from recombinant human choline transporter at 10 uM after 60 mins by scintillation counting method
[2] = molecular target: T1, Sodium-dependent dopamine transporter (Homo sapiens, UniProt Q01959); assay: Displacement of [3H]BTCP from recombinant human dopamine transporter at 10 uM after 120 mins by scintillation counting method
T1 sequence (Q01959 whole entry): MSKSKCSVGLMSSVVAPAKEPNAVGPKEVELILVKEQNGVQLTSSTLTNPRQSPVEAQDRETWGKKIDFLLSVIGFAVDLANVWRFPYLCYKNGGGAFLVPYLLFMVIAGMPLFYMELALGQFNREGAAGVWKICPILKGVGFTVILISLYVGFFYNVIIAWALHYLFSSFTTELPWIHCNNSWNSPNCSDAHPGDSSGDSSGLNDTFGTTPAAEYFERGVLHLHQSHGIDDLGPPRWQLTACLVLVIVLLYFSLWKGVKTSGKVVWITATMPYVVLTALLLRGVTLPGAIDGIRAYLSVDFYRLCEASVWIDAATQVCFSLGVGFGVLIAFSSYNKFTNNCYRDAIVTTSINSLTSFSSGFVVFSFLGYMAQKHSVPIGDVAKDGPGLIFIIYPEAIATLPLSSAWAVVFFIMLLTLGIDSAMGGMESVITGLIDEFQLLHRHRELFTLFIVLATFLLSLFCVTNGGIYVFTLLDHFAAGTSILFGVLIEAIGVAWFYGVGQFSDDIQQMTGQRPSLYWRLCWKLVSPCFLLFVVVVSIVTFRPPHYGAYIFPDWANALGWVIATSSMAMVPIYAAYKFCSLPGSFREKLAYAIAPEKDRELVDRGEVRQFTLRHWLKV

[3] = molecular target: T2, Sodium-dependent noradrenaline transporter (Homo sapiens, UniProt P23975); assay: Displacement of [3H]nisoxetine from recombinant human norepinephrine transporter at 10 uM after 120 min by scintillation counting method
T2 sequence (P23975 whole entry): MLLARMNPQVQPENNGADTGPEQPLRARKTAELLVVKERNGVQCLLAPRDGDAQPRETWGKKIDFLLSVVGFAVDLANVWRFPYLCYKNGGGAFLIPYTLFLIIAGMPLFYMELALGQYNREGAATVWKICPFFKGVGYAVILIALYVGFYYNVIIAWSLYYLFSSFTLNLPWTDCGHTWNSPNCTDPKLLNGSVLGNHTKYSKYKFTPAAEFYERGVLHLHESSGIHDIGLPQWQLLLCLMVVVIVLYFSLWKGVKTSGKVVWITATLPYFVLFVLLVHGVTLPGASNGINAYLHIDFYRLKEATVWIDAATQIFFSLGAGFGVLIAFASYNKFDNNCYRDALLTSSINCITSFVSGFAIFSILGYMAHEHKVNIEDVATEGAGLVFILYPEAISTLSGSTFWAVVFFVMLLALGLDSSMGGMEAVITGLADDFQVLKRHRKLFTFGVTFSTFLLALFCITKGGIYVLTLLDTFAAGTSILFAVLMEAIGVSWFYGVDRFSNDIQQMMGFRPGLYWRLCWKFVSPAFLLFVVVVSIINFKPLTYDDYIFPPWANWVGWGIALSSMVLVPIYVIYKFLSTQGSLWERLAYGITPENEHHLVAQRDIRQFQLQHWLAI

[4] = Lipophilicity, log D of the compound at pH 7.4; format: physicochemical; conditions: buffer
[5] = Solubility of the compound in aqueous buffer at pH 5.5; format: physicochemical
[6] = molecular target: Sodium channel protein type 10 subunit alpha (Homo sapiens, UniProt Q9Y5Y9); assay: Inhibition of human Nav1.8 expressed in HEK cells by automated patchXpress electrophysiology method; format: cell-based
[7] = molecular target: Sodium channel protein type 9 subunit alpha (Rattus norvegicus, UniProt O08562); assay: Inhibition of rat Nav1.7 expressed in HEK cells by patch clamp electrophysiology method; format: cell-based
[8] = Drug recovery in bile duct-cannulated rat bile at 0.3 mg/kg, iv via infusion for 1 hr; format: ADME, organism-based; conditions: read-out: Drug recovery
[9] = Renal clearance in rat at 0.3 mg/kg, iv via infusion for 1 hr; format: ADME, organism-based, Kidney; conditions: in vivo
[10] = Biliary clearance in rat at 0.3 mg/kg, iv via infusion for 1 hr; format: ADME, organism-based, Bile; conditions: in vivo
[11] = Unbound clearance rat plasma at 0.3 mg/kg, iv via infusion for 1 hr; format: ADME, organism-based; conditions: in vivo
Cytochrome P450 2C8 = Cytochrome P450 2C8 (Homo sapiens, UniProt P10632); assay: Inhibition of CYP2C8 (unknown origin); format: ADME
Chain of Cytochrome P450 2C8 (P10632 whole entry): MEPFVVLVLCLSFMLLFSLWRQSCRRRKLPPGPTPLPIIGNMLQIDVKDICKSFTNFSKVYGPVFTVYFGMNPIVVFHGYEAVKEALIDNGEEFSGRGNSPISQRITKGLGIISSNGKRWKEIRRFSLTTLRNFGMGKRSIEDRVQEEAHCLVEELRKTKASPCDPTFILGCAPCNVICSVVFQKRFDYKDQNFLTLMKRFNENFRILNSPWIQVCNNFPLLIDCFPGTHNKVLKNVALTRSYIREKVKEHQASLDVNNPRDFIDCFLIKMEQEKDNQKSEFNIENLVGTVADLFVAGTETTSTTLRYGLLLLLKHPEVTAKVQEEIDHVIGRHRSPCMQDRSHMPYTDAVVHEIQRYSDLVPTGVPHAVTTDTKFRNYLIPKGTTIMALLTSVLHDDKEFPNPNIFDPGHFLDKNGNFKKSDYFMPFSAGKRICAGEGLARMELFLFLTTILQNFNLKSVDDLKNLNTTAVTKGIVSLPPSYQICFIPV

Cytochrome P450 1A2 = Cytochrome P450 1A2 (Homo sapiens, UniProt P05177); assay: Inhibition of CYP1A2 (unknown origin); format: ADME
[12] = Intrinsic clearance in human hepatocytes assessed per million cells; format: ADME, cell-based, Hepatocyte; conditions: read-out: CLH
[13] = Inhibition of cynomolgus monkey Nav1.7 expressed in HEK cells by automated patchXpress electrophysiology method; format: cell-based; conditions: Macaca fascicularis, HEK293
[14] = Inhibition of dog Nav1.7 expressed in HEK cells by automated patchXpress electrophysiology method; format: cell-based; conditions: HEK293
[15] = molecular target: Beta-1 adrenergic receptor (Homo sapiens) (UniProt P08588); assay: Agonist activity at recombinant human beta1 receptor expressed in HEK293 cells assessed as increase in cAMP accumulation at 10 uM after 30 mins by HTRF assay relative to control; format: functional, cell-based
[16] = molecular target: Cannabinoid receptor 1 (Homo sapiens) (UniProt P21554); assay: Agonist activity at recombinant human CB1 receptor expressed in CHOK1 cells assessed as increase in cAMP accumulation at 10 uM after 20 mins by HTRF assay relative to control; format: functional, cell-based
Chain of Cannabinoid receptor 1 (Homo sapiens) (P21554 whole entry): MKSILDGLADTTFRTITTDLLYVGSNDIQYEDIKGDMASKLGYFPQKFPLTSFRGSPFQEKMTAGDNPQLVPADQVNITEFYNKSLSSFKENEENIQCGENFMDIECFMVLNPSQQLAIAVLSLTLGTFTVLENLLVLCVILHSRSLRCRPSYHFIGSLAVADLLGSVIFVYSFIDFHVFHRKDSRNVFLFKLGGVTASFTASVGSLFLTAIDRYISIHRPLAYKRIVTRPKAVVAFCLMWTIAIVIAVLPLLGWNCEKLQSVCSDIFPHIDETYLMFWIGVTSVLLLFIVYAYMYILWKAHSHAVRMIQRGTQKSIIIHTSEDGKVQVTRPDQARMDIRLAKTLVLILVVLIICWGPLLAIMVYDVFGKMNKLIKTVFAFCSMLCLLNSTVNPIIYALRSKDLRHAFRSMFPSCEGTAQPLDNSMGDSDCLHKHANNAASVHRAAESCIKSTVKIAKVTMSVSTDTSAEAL

[17] = molecular target: Type-1 angiotensin II receptor (Homo sapiens) (UniProt P30556); assay: Antagonist activity at recombinant human AT1 receptor expressed in HEK293 cells assessed as inhibition of angiotensin2-induced calcium flux at 10 uM by spectrophotometric method relative to control; format: functional, cell-based
[18] = molecular target: Muscarinic acetylcholine receptor M2 (Homo sapiens) (UniProt P08172); assay: Antagonist activity at recombinant human M2 receptor expressed in CHOK1 cells assessed as inhibition of acetylcholine-induced cAMP accumulation at 10 uM measured after 10 mins by HTRF assay relative to control; format: functional, cell-based
Rattus norvegicus = species: Rattus norvegicus; assay: Displacement of [3H]diltiazem from L-type calcium channel diltiazem binding site in rat brain at 10 uM after 120 mins by scintillation counting method
[19] = molecular target: 5-hydroxytryptamine receptor 3A (Homo sapiens) (UniProt P46098); assay: Displacement of [3H]BRL 43694 from recombinant human 5-HT3 receptor at 10 uM measured after 120 mins by scintillation counting method
Chain of 5-hydroxytryptamine receptor 3A (Homo sapiens) (P46098 whole entry): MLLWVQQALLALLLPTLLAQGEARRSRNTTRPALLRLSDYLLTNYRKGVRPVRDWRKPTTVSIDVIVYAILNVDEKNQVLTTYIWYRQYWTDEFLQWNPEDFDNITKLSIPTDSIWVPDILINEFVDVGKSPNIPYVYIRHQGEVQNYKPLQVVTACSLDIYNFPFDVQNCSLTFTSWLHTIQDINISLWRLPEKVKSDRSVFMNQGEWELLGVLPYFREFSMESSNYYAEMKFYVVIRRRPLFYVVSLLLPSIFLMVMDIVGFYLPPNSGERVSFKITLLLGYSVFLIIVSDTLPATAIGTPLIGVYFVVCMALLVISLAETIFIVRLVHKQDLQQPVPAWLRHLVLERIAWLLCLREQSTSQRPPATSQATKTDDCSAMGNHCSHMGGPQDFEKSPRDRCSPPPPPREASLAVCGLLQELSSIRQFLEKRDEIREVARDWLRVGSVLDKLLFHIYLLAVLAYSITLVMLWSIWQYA

monoamine oxidase = monoamine oxidase (Homo sapiens, UniProt P21397+P27338); assay: Inhibition of monoamine oxidase (unknown origin) at 10 uM relative to control; format: protein assay
[20] = molecular target: 3',5'-cyclic-AMP phosphodiesterase 4D (Homo sapiens) (UniProt Q08499); assay: Inhibition of recombinant human PDE4D2 at 10 uM using [3H]cAMP as substrate measured after 20 mins by scintillation counting method relative to control
Chain of 3',5'-cyclic-AMP phosphodiesterase 4D (Homo sapiens) (Q08499 whole entry): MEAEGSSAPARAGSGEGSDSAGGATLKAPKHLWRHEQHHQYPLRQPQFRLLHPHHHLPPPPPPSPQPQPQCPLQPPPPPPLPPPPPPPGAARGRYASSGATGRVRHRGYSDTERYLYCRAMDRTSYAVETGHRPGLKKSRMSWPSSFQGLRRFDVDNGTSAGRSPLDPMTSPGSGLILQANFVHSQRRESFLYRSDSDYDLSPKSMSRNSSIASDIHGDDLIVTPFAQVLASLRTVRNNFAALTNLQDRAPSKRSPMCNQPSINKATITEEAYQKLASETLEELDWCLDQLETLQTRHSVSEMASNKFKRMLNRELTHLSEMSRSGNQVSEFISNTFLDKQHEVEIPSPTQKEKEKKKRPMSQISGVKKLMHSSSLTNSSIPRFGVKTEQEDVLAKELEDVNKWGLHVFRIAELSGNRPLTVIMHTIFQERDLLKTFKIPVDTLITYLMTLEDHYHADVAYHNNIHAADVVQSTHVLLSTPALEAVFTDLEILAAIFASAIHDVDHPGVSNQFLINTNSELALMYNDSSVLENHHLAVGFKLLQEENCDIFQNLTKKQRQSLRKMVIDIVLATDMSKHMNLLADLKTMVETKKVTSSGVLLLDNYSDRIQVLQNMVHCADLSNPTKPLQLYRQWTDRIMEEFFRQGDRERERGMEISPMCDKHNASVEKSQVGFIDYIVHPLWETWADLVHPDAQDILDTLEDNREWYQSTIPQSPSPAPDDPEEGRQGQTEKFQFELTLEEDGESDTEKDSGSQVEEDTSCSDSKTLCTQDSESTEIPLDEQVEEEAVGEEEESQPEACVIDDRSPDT

[21] = molecular target: Epidermal growth factor receptor (Homo sapiens) (UniProt P00533); assay: Displacement of [125I] EGF from EGFR in human A431 cells at 10 uM after 60 mins by scintillation counting method; format: cell-based
[22] = molecular target: Androgen receptor (Homo sapiens) (UniProt P10275); assay: Displacement of [3H]methyltrienolone from human androgen receptor at 10 uM after 1440 mins by scintillation counting method
Chain of Androgen receptor (Homo sapiens) (P10275 whole entry): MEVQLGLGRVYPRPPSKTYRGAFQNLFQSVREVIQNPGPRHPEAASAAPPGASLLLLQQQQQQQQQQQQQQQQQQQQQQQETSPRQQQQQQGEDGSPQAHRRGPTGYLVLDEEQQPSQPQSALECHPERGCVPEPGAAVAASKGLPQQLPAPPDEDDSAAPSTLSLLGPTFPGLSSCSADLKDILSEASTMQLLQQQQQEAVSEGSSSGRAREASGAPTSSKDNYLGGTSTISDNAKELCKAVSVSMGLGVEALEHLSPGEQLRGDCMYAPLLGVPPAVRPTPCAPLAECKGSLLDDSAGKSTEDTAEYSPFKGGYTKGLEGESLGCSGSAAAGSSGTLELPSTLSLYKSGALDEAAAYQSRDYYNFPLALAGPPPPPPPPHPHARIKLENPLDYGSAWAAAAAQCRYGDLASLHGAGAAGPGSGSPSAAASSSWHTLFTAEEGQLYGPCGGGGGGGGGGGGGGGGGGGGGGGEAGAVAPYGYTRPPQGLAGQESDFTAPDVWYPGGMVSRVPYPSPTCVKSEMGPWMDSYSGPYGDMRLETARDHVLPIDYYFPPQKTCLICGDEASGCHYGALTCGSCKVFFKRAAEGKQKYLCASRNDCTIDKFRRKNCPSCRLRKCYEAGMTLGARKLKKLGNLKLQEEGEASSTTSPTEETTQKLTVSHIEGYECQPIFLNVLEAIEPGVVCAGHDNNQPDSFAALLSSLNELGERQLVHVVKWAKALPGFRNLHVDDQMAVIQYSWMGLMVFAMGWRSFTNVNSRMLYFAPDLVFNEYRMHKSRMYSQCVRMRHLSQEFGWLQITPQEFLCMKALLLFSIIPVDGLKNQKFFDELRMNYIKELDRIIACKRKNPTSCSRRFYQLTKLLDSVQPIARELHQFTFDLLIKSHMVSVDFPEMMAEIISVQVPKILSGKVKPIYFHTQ

[23] = molecular target: Histamine H1 receptor (Homo sapiens) (UniProt P35367); assay: Displacement of [3H]pyrilamine from recombinant human H1 receptor at 10 uM after 60 mins by scintillation counting method
[24] = molecular target: T3, Muscarinic acetylcholine receptor M1 (Homo sapiens) (UniProt P11229); assay: Displacement of [3H]pirenzepine from recombinant human M1 receptor at 10 uM after 60 mins by scintillation counting method
T3 sequence (whole entry): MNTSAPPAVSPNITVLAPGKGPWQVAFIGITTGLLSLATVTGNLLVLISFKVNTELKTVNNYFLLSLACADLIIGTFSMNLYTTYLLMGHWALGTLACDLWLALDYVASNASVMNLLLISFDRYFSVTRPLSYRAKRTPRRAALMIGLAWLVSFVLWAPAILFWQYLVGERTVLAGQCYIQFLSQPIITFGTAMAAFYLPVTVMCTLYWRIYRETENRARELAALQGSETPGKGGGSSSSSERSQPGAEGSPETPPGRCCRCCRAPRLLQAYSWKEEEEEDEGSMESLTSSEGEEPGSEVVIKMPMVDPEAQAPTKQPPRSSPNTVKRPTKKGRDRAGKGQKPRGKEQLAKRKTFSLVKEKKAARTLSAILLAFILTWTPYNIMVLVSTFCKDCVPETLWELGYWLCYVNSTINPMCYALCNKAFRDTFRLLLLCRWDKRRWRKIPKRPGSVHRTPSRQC

[25] = molecular target: Mu-type opioid receptor (Homo sapiens) (UniProt P35372); assay: Displacement of [3H]DAMGO from recombinant human MOR at 10 uM after 120 mins by scintillation counting method
Chain of Mu-type opioid receptor (Homo sapiens) (P35372 whole entry): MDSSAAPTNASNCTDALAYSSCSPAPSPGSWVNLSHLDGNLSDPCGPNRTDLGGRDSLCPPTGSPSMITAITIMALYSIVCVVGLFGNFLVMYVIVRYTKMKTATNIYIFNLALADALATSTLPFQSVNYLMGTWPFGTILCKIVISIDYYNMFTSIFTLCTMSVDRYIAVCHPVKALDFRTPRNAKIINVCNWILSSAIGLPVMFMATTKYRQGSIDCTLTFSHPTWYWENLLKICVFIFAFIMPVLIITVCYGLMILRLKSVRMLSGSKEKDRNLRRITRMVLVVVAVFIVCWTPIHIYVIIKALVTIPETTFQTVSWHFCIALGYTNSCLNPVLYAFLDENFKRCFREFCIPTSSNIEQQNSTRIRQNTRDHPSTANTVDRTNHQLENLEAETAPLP

[26] = molecular target: T2, Sodium-dependent noradrenaline transporter; assay: Displacement of [3H]nisoxetine from recombinant human norepinephrine transporter after 120 min by scintillation counting method
[27] = molecular target: T1, Sodium-dependent dopamine transporter; assay: Displacement of [3H]BTCP from recombinant human dopamine transporter after 120 mins by scintillation counting method
[28] = Protein binding in non-human primate plasma assessed as fraction unbound at 2 uM; format: ADME, cell-free, Macaca mulatta; conditions: rhesus monkey
[29] = Cytotoxicity against human THLE cells; format: cell-based
[30] = molecular target: Cholecystokinin receptor type A (Homo sapiens) (UniProt P32238); assay: Agonist activity at recombinant human CCK1 receptor expressed in CHOK1 cells assessed as increase in cAMP accumulation at 10 uM after 30 mins by HTRF assay relative to control

With `N#Cc1cc(S(=O)(=O)Nc2ncns2)ccc1Oc1ccc(-c2cccc(C(F)(F)F)c2)cc1-c1ccnc(CNCCC2CCNCC2)c1` the inhibition [1] was 99%, the inhibition [2] was 84% and the inhibition [3] was 80%. The logD [4] was 2.37 to 2.4, the solubility [5] was greater than 1840 µg/mL and the IC50 [6] was 10 to 26 µM. The IC50 [7] was 0.075 µM, the dose excreted at 1 h [8] was 74% and the CL renal at 1 h [9] was 0.0322 mL/min/kg. The CL [10] was 44 mL/min/kg, the CL free [11] was 30218 mL/min/kg and the IC50 (Cytochrome P450 2C8) was 6.17 µM. It also gave an IC50 (Cytochrome P450 1A2) greater than 30 µM, a hepatocyte CLint [12] of 6.5 µL/min/1e6 cells and an IC50 [13] of less than 0.03 nM. The IC50 [14] was less than 0.03 nM, the Activity [15] was -4% and the Activity [16] was -7%. The inhibition [17] was -2%, the inhibition [18] was 24% and the inhibition (Rattus norvegicus) was 40%. The inhibition [19] was 27%, the inhibition at 10 µM (monoamine oxidase) was 16% and the inhibition [20] was -8%. It also gave an inhibition [21] of 35%, an inhibition [22] of 27% and an inhibition [23] of 29%. The inhibition [24] was 48%, the inhibition [25] was 46% and the IC50 [26] was 4.25 µM. The Ki [26] was 3.16 µM, the IC50 [27] was 4.01 µM and the Ki [27] was 2.12 µM. The fraction unbound at 2 µM [28] was 0.001, the IC50 [29] was 108 µM and the Activity [30] was 4%.
